Data on 4 compounds can be found in US20080249080A1, “Benzodiazepine Derivatives and Uses Thereof on Medical Field” (priority 2005, published 2008).

“Also recorded” adds a separate entry of the source.

Test [1] has as its system RET/C634R and RET/M918T mutants. Particulars: cited from earlier work.
The test system of test [2] is RET/V804L and RET/V804M mutants. The conditions noted are these: cited from earlier work.
Test [3] has as its system RET/E768D, RET/L790F, RET/Y791F, RET/A883F and RET/S891A mutants. The conditions noted are these: cited from earlier work.
In a further test the target is RET kinase (Homo sapiens, UniProt P07949). The conditions noted are these: cited from earlier work.
For test [4], the system named is Jurkat (cell line from acute lymphoblastic T variant leukemias). In words: Apoptosis by propidium iodide flow cytofluorimetry, Jurkat. The class given is cell-based. The conditions noted are these: 10 μM; for percentage of the apoptotic cells in comparison with non treated cells: FIGS. 7-9; for time after which apoptosis is induced: propidium iodide, cytofluorimeter. As for the experimental part: (§1) The used cellular lines are: K562 (human erythroleucemic cell line), HL60 (human acute promyelocytic leukemia cell line), Jurkat (cell line from acute lymphoblastic T variant leukemias), U937 (acute promyelocitic leukemia cell line) and Glivec resistant K562 (this cell line was supplied kindly by Prof. Carlo Gambacorti-Passerini of the Dipartimento of Clinica Medica, Università of Milan-Bicocca, Monza, Italy) (Gambacorti-Passerini CB, et al, 2002).
(§2) The cell lines were incubated with RS678 and RS779 synthetic compounds at 10 μM concentration for 8, 16 and 24 hours, subsequently washed with PBS and 2.5 mg/ml of propidium iodide. This phenanthridine dye, when intercalated into double-stranded DNA forms a sufficiently stable complex that under excitation emits a red fluorescent light. By means of this coloration it is possible to discriminate in an heterogenous population cells with different DNA contents and therefore to estimate the distribution of the cellular populations based on their DNA contents and whether possibly, as a result from pharmacological treatments, alterations at level of cell cycle have manifested. The labeled cell lines were analyzed using flow FACSort cytofluorimeter.

Test [5] addresses T1, bcr-abl protein (Homo sapiens, UniProt P00519).
T1 construct: endogenous in cells; host or cells: K562; the other entry of the earlier key: BCR (P11274, Breakpoint cluster region protein)
In words: Tyrosine-kinase assay, bcr-abl phosphorylation pattern. Format: cell-based. Particulars: FIG. 4. Here is the method:
(§3) Moreover, in order to elucidate the apoptotic pathway triggered by these two substances, Western Blotting experiments and tyrosine-kinase assays were carried out and evidenced that: […]

Test [6] relates to U937 (acute promyelocitic leukemia cell line). The test can be described thus: Apoptosis by propidium iodide flow cytofluorimetry, U937. Format: cell-based. Particulars: 10 μM; for percentage of the apoptotic cells in comparison with non treated cells: FIGS. 7-9; for time after which apoptosis is induced: propidium iodide, cytofluorimeter. As for the experimental part:
as §1, §2

The test system of test [7] is OVCAR3 ovary carcinoma cell line. In words: DNA fragmentation, OVCAR3. The class given is cell-based, human. The conditions noted are these: 10 μM, 24 and 48 hours. An excerpt: (§4) The authors also have tested compounds according to the invention, in particular RS-678 and RS-779 compounds, also on OVCAR3 ovary carcinoma cell lines, ARO anaplastic thyroid and NPA papillary thyroid human carcinoma cell lines.

Test [8] relates to K562 cell line. The test can be described thus: DNA fragmentation, K562 leukemic cell line. The conditions noted are these: 5, 10, 15 μM, 8, 16 and 24 hours, FIG. 1 A, B. The class given is cell-based, human.
Test [9] concerns mixed lymphocytic cultures from marrow or peripheral blood of patients suffering from chronic myelogenous leukemia. In words: DNA fragmentation, mixed lymphocytic cultures of CML patients. The conditions noted are these: 10 μM. The class given is cell-based, human.
Test [10] has as its system ARO anaplastic thyroid carcinoma cell line. The test can be described thus: DNA fragmentation, ARO. Format: cell-based, human. The conditions noted are these: 10 μM, 24 and 48 hours. Here is the method: as §4
(§5) Subsequently, the same cell lines, except OVCAR3, were tested with fourteen new synthetic compounds at 10 μM concentration for 24 and 48 hours: eleven induced the expected cellular death.

Test [11] relates to K562 (human erythroleucemic cell line). In words: Apoptosis by propidium iodide flow cytofluorimetry, K562. The class given is cell-based. The conditions noted are these: 10 μM; for percentage of the apoptotic cells in comparison with non treated cells: FIGS. 7-9; for time after which apoptosis is induced: propidium iodide, cytofluorimeter. Here is the method: as §1, §2
Test [12] has as its system bcr-abl protein. In words: Western blot, bcr-abl protein expression. Format: cell-based, human. Particulars: after 16 hours of treatment; FIG. 4. Here is the method: as §3
For orientation: A western blot detects proteins with antibodies after separation by electrophoresis.

Test [13] concerns caspase 9. The test can be described thus: Western blot, caspase 9 activation in K562. Format: cell-based, human. Particulars: FIG. 3. As for the experimental part:
(§6) Moreover, in order to elucidate the apoptotic pathway triggered by these two substances, Western Blotting experiments and tyrosine-kinase assays were carried out and evidenced that: (i) these compounds activate specific molecules involved in the apoptotic process (caspase 9 and caspase 8) (FIG. 3);

The test system of test [14] is NPA papillary thyroid carcinoma cell line. In words: DNA fragmentation, NPA. Particulars: 10 μM, 24 and 48 hours. Format: cell-based, human. Here is the method:
as §4, §5

Test [15] relates to HL60 (human acute promyelocytic leukemia cell line). In words: Apoptosis by propidium iodide flow cytofluorimetry, HL60. Format: cell-based. Particulars: 10 μM; for percentage of the apoptotic cells in comparison with non treated cells: FIGS. 7-9; for time after which apoptosis is induced: propidium iodide, cytofluorimeter. As for the experimental part: as §1, §2
Test [16] concerns R2C cell line (rat Leydig tumour). In words: DNA fragmentation, R2C cell line. Format: cell-based. The conditions noted are these: high concentrations (10 μM and 50 μM), FIG. 1 C.
Another test deals with Glivec resistant K562. The test can be described thus: Apoptosis by propidium iodide flow cytofluorimetry, Glivec resistant K562. The class given is cell-based, human. Particulars: 10 μM; for percentage of the apoptotic cells in comparison with non treated cells: FIGS. 7-9; for time after which apoptosis is induced: propidium iodide, cytofluorimeter. Here is the method: as §1, §2

A further test has as its system caspase 8. In words: Western blot, caspase 8 activation in K562. The conditions noted are these: FIG. 3. The class given is cell-based, human. As for the experimental part:
as §6

For the next test, the system named is NPA cell line. In words: Percentage of apoptosis, NPA. Format: cell-based, human. The conditions noted are these: after 24 hours.
Test [17] deals with caspase 9. The test can be described thus: Western blot, caspase 9 in CML patient sample. Format: cell-based, human. Particulars: 24 and 48 hours, FIG. 15.
The test system of test [18] is K562 cell line. The test can be described thus: Percentage of apoptosis, K562. The class given is cell-based, human. The conditions noted are these: after 24 hours.
The subject of another test is ARO cell line. In words: Percentage of dead cells, ARO. Format: cell-based, human. Particulars: after 24 hours.
The test system of test [19] is RET/C634R transformed RAT1 fibroblasts. Particulars: 1 μl of ZD6474; cited from earlier work.
Test [20] deals with RET/V804L and RET/V804M transformed cells. Particulars: same concentration (1 μl of ZD6474); cited from earlier work.
Where [21] appears, read: mixed lymphocytic cultures of CML patients, 8, 16, 24 and 48 hours.
The mark [22] stands for this setting: samples from patients (some Glivec resistant), 24, 48 and 72 hours, FIGS. 12-14.

T1 sequence (P00519 with tags, fused parts or gaps): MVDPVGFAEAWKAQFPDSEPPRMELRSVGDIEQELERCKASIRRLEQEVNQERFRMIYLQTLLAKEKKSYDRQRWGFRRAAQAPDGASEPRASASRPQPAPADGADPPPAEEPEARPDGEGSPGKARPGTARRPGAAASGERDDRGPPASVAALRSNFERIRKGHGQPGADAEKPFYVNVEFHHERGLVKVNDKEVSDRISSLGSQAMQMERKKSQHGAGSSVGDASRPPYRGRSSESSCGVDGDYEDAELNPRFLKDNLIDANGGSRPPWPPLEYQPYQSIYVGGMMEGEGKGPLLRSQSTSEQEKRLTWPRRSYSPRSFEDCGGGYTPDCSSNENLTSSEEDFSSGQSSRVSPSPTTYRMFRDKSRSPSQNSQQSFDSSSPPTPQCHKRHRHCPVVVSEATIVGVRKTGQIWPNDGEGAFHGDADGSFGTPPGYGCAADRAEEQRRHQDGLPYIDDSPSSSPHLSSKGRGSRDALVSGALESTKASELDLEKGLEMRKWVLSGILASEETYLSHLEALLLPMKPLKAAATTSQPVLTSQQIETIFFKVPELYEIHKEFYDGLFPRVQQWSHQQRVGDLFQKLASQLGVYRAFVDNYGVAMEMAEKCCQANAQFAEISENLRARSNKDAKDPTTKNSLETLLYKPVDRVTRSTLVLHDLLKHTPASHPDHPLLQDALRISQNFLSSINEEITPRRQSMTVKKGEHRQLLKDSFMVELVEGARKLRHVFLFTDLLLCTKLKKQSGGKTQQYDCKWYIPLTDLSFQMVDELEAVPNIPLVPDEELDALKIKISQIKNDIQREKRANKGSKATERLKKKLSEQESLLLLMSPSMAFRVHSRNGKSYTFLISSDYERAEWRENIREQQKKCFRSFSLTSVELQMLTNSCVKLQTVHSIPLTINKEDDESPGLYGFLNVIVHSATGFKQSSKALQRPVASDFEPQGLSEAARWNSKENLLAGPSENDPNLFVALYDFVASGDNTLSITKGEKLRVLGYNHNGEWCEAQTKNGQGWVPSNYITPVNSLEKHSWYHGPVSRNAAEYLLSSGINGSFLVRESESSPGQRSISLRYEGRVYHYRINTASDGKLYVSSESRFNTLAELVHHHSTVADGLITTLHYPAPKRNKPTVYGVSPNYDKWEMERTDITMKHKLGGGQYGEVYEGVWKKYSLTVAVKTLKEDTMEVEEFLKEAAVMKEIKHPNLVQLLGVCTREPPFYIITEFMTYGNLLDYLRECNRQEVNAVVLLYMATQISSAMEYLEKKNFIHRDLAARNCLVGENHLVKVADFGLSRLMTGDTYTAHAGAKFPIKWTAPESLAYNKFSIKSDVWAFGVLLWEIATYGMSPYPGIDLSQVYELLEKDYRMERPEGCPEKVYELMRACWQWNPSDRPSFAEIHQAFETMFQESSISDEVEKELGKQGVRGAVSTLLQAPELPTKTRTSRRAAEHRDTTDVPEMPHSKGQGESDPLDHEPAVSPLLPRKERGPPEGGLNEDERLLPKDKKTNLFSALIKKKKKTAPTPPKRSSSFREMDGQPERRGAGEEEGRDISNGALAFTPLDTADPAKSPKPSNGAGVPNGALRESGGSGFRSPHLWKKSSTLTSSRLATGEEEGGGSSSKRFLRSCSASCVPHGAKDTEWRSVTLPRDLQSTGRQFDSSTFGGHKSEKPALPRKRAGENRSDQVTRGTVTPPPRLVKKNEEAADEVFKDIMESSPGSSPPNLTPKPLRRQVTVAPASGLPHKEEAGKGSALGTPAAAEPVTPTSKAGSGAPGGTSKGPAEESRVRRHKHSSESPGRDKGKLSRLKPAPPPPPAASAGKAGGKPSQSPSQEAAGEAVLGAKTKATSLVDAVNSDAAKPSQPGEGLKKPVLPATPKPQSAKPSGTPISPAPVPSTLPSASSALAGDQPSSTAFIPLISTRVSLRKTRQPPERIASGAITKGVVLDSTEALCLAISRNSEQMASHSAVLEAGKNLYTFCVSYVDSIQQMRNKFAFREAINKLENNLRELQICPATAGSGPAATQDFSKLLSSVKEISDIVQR
Sequence of RET kinase (P07949 29-1114): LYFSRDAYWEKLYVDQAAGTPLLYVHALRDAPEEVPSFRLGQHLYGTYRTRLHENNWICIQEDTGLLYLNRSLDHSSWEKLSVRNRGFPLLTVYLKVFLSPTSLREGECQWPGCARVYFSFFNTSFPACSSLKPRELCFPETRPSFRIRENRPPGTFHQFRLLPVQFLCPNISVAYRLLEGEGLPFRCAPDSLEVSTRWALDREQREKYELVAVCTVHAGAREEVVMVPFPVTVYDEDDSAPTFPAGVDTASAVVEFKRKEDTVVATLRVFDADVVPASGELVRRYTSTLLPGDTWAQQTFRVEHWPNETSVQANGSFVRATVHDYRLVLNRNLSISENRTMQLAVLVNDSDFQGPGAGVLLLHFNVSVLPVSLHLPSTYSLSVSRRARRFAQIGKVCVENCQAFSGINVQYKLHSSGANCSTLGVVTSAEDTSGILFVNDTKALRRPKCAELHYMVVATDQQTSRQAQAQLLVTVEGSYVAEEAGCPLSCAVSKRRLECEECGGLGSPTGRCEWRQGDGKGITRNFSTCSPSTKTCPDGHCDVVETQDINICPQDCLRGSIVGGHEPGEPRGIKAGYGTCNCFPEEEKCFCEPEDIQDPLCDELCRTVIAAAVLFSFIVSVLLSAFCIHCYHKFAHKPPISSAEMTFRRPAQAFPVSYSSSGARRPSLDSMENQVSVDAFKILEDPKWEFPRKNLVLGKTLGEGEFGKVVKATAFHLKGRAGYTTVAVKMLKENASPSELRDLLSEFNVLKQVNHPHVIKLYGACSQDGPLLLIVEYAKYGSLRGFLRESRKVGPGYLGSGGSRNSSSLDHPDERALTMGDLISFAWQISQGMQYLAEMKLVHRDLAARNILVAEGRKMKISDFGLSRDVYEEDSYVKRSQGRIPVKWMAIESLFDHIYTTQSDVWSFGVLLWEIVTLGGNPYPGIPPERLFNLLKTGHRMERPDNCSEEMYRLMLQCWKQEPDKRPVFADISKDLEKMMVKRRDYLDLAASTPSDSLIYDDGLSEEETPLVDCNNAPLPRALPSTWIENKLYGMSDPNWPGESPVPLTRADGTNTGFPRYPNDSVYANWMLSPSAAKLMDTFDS

With `CC(C)(C)n1nc(-c2ccc(Cl)cc2)c2c(N)ncnc21` [PP2], the “block of the transforming activity” value in test [1] is on record as “able to block”. In addition, the “sensitivity to the action of inhibitors” value in test [2] is on record as “less sensitive”. For the same compound, the “inhibition of in vivo self-phosphorylation” value in test [3] was “inhibited effectively”. For the same compound, the “inhibiting activity with respect to RET kinase” value at RET kinase was “strong inhibiting activity”.

In the case of `CCOC(=O)C1Nc2ccccc2S(=O)(=O)n2cccc21` (stereo not shown) [RS-678, ethyl 10,11-dihydropyrrolo[1,2-b][1,2,5]benzothiadiazepine-11-carboxylate 5,5-dioxide], the “percentage of the apoptotic cells in comparison with non treated cells” value (in test [4]; in [6]; in [11]; in test [15]; in the test with Glivec resistant K562) was “increase” each time. The “time after which apoptosis is induced” value was determined as 8 h in test [4]; 8 h in test [6]; 8 h in test [11]; 8 h in test [15]; 16 h in the test on Glivec resistant K562. Moreover, the “changes in the phosphorylation pattern of the bcr-abl protein (tyrosine-kinase assay)” value on bcr-abl protein [5] is recorded as “not observed”. Besides, the DNA fragmentation result in test [7] is listed as “induction of the DNA fragmentation”; in [9] (setting [21]), “fragmentation of the DNA”; in [9] (setting [22]), “DNA fragmentation”; in [10] it was “induction of the DNA fragmentation”; in test [14], “induction of the DNA fragmentation”; in test [16], “does not occur”. Also, the “apoptosis / DNA fragmentation” value in the test with K562 cell line [8] is reported as “able to induce apoptosis; also recorded: DNA fragmentation”. Moreover, the “down-regulation of the bcr-abl protein (Western blot)” value in the test on bcr-abl protein [12] was “down-regulation”. The “activation of caspase 9 (Western blot)” value in the test with caspase 9 [13] was “activation”. In the test on caspase 8, the “activation of caspase 8 (Western blot)” value is reported as “activation”.

Take `CCOC(=O)C1c2cccn2S(=O)(=O)c2ccccc2N1C(=O)c1ccc(C)cc1` (stereo not shown) [RS-779, ethyl 10,11-dihydro-10-(4-methylbenzoyl)pyrrolo[1,2-b][1,2,5]benzothiadiazepine-11-carboxylate 5,5-dioxide]: the “percentage of the apoptotic cells in comparison with non treated cells” value (in test [4]; in [6]; in [11]; in test [15]; with Glivec resistant K562) was “increase” in each case. For the same compound, the “time after which apoptosis is induced” value in [4] came to 8 h; in test [6], 8 h; in [11] it was 8 h; in test [15] it was 8 h; with Glivec resistant K562, 16 h. Further, the “changes in the phosphorylation pattern of the bcr-abl protein (tyrosine-kinase assay)” value on bcr-abl protein [5] is “not observed”. For the same compound, the percentage of apoptosis in the test with NPA cell line came out at 50%; in the test on K562 cell line [18], 70%. The DNA fragmentation result in test [7] was “induction of the DNA fragmentation”; in test [9] (setting [21]) it was “fragmentation of the DNA”; in test [9] (setting [22]), “DNA fragmentation”; in [10] it was “induction of the DNA fragmentation”; in test [14] it was “induction of the DNA fragmentation”; in test [16] it was “does not occur”. In the test on K562 cell line [8], the “apoptosis / DNA fragmentation” value was “able to induce apoptosis; also recorded: DNA fragmentation”. In addition, the “activation of caspase 9 (Western blot)” value in the test with caspase 9 [17] is reported as “strong activation”; in the test on caspase 9 [13], “activation”. Further, the “down-regulation of the bcr-abl protein (Western blot)” value with bcr-abl protein [12] is reported as “down-regulation”. The “percentage of dead cells” value in the test with ARO cell line is on record as 45%. Moreover, the “activation of caspase 8 (Western blot)” value in the test on caspase 8 was “activation”.

For the compound `COc1cc2c(Nc3ccc(Br)cc3F)ncnc2cc1OCC1CCN(C)CC1` [ZD6474], the “block of the transforming activity” value in test [1] is recorded as “able to block”. In addition, in test [2], the “sensitivity to the action of inhibitors” value was “less sensitive”. In test [3], the “inhibition of in vivo self-phosphorylation” value is reported as “inhibited effectively”. Further, the proliferation result in [19] was “reduces strongly”. In addition, the growth result in test [20] is on record as “no effect”.
